Test results published in US9751825B2, “TAK1 kinase inhibitors, compositions, and used related thereto” (Emory University, priority 2011, dated 2017).
Entries after “also recorded” stand apart in the source; their conditions may differ. Read-outs that look alike come from different tables or passages of the source. Each block holds one molecule with its values, some of them ahead of it.

Key:
[1] = test system: prostate cancer cells (PC3) and breast cancer MDA-MB-231 cells; experiment: Tumor cell growth with kinase inhibitors, with or without TNFα (FIG. 2); type: cell-based; details: 48 hrs; for tumor cell growth: 5 μM U0126, 10 μM 1478, 5 μM 5Z-7-oxozeanol, 5 μM HDAB001, 5 μM SB431542; for repression of tumor cell growth together with TNFα: TNFα (10 ng/ml)
From the text: The response of prostate cancer cells (PC3, FIG. 2) and breast cancer MDA-MB-231 cells to HDAB001 was compared with responses to known kinase inhibitors, including 5Z-7-oxozeanol, a selective inhibitor of TAK1; U0126, a selective MEK inhibitor; AG1478, a selective EGFR inhibitor; SB431542, TGFBR1 inhibitor.

phosphorylation of Smad2 = experiment: Phosphorylation of Smad2 in TGFβ1-treated cells; type: cell-based; details: 2 ng/ml TGFβ1 for 2 hours; HDAB001 10 μM
Protocol: (§1) MEK inhibitor U0126 inhibits phosphorylation of ERK and EGFR inhibitor blocks EGFR-mediated phospho-ERK in MCF10A.
(§2) The selectivity of the HDAB001 and HDAB006 compounds was tested in several cell-based assays examining the kinase activity of RAF, MEK, EGFR and TGFBR1. Several known inhibitors of the above kinases were used for control. Two luciferase reporters NF-KB-Luc and SBE-Luc were transfected in MDA-MB-231 cells to assess the effect of compounds on NF-KB and TGF-beta receptor-Smad signaling events. […] See Safina et al., TAK1 is required for TGF-[beta]1-mediated regulation of matrix metalloproteinase-9 and metastasis. Oncogene, 2008, 27, 1198-1207. […] The kinase activities of TGF-beta receptors type I and type II are required for phosphorylation of Smad2.

[2] = Stability of the isolated product at room temperature; type: physicochemical
[3] = test system: breast, prostate and lung carcinoma and non-tumor cell lines; type: cell-based
Protocol: (§3) The assay consists of treatment of cells with the synthetic compounds (a range of concentrations) and subsequent quantification of the cells by staining with methylene blue and measuring optical density of the resulting colored solution. The measured optical densities are normalized to a vehicle-control and the normalized values are used to determine IC50 values for a given compound using SigmaPlot software, Systat Software, Inc., San Jose, Calif. Cells were seeded in 96-well plate at 2-5,000 cells/well in 100 μl. Next day cells were treated with HDAB compounds. Stocks of compounds (10 mM) were prepared by dissolving in DMSO. Consecutive dilutions ranging 10 nM-100 μM concentrations were prepared as 2× solutions in media, and 100 μl solutions were added to cells for treatment. DMSO was used as a vehicle control. Cells were incubated with compounds for 48 hours at 37° C. in a CO2-incubator. For cell staining, media was removed and cells were fixed and stained with 0.5% Methylene blue in water/methanol (50:50) solution for 1 hour at room temperature (RT). After extensive rinsing in ddH2O the plates were dried over-night. Cells were solubilized in 100 μl/well of 1% SDS in PBS for 10 minutes at RT, the absorbance at 650 nm (methylene-blue absorbance) and 540 nm (background) was read with a SpectraMax fluorimeter and the difference Abs650-Abs540 was calculated.
Assays were carried out with a panel of breast, prostate and lung carcinoma and non-tumor cell lines with HDAB-001. […] The selectivity trend for HDAB001 was further validated in a set of prostate carcinoma and non-tumor epithelial cell lines.

[4] = test system: breast carcinoma MDA-MB-231 cells; experiment: Cytotoxicity assay (methylene blue staining), MDA-MB-231 cells; type: cell-based
Protocol: as §3

[5] = test system: Non-tumor MCF10A (ER-, PR-) cells; experiment: Cytotoxicity in non-tumor MCF10A cells; type: cell-based, human
Protocol: as §3, with “calculated. […]” for “calculated.”

[6] = test system: phosphorylation of ERK1/2; experiment: Phosphorylation of ERK1/2 in MDA-MB-231 cells; type: cell-based; details: 2 ng/ml TGFβ1 for 2 hours, 10 μM HDAB001, 5 μM U0126
Protocol: as §1, §2

PC3 = experiment: Cytotoxicity of HDAB001 in prostate carcinoma cell lines, PC3; type: cell-based; details: PC3, AR neg, metastatic
Protocol: as §3, with “calculated. […]” for “calculated.”

RWPE-2 = experiment: Cytotoxicity of HDAB001 in prostate carcinoma cell lines, RWPE-2; type: cell-based; details: RWPE-2, AR pos, tumor, metastatic
Protocol: as §3, with “calculated. […]” for “calculated.”

LNCaP-C4-2 = experiment: Cytotoxicity of HDAB001 in prostate carcinoma cell lines, LNCaP-C4-2; type: cell-based; details: LNCaP-C4-2, AR pos, ind, metastatic
Protocol: as §3, with “calculated. […]” for “calculated.”

phosphorylation of ERK = experiment: Phosphorylation of ERK in non-tumor MCF10A cells with EGF-mediated signaling; type: cell-based, human; details: 10 μM HDAB001, 10 μM AG1478
Protocol: as §1, §2

ER/HER2-positive lines = experiment: Cytotoxicity in ER/HER2-positive breast carcinoma lines; type: cell-based; details: two ER/HER2-positive lines
Protocol: as §3, with “calculated. […]” for “calculated.”

SBE-Luc = SBE-Luc luciferase reporter (TGF-beta receptor-Smad signaling) in MDA-MB-231 cells; type: cell-based
Protocol: FIG. 3A-B show data on the luciferase activity of NFkB-Luc and SBE-Luc reporters in MDA-MB-231 control, dnTAK1 or cells treated with HDAB001 and HDAB006, P-values by the ANOVA test.
as §2

RWPE-1 = experiment: Cytotoxicity of HDAB001 in prostate cell lines, RWPE-1 (non-tumor); type: cell-based; details: RWPE-1, AR pos
Protocol: as §3, with “calculated. […]” for “calculated.”

ER-positive cell lines = experiment: Cytotoxicity in ER-positive breast carcinoma cell lines; type: cell-based; details: three ER-positive cell lines
Protocol: as §3, with “calculated. […]” for “calculated.”

[7] = test system: Non-tumor MCF12A (ER+) cells; experiment: Cytotoxicity in non-tumor MCF12A cells; type: cell-based, human
Protocol: as §3, with “calculated. […]” for “calculated.”

[8] = test system: mouse carcinoma cell line 4T1; experiment: Cytotoxicity in mouse carcinoma cell line 4T1; type: cell-based; details: 4T1 (from BALB/c mice)
Protocol: as §3, with “calculated. […]” for “calculated.”

LNCaP = experiment: Cytotoxicity of HDAB001 in prostate carcinoma cell lines, LNCaP; type: cell-based; details: AR pos, tumor
Protocol: as §3, with “calculated. […]” for “calculated.”

[9] = triple-negative MDA-MB-231 cells

Structure (SMILES): COc1cc(O)c2c(c1)/C=C/C[C@H](O)[C@H](O)C(=O)/C=C\C[C@H](C)OC2=O [5Z-7-oxozeanol]
tumor cell growth [1]: markedly inhibited
repression of tumor cell growth together with TNFα [1]: cooperated with TNFα

Structure (SMILES): NC(=O)c1ccc(-c2nc(-c3ccc4c(c3)OCO4)c(-c3ccccn3)[nH]2)cc1 [SB431542, reference compound]
tumor cell growth [1]: resistant
phosphorylation of Smad2 (phosphorylation of Smad2): blocked

stability after isolation [2]: decomposed at room temperature
Structure (SMILES): COC(=O)/C=C\C=C(\C(=O)N(C)OC)c1ccc(Cl)c(Cl)c1 [Compound 1-63h, (2Z,4E)-methyl 5-(3,4-dichlorophenyl)-6-(methoxy(methyl)amino)-6-oxohexa-2,4-dienoate]

Structure (SMILES): COc1cccc2c1C(=O)c1c(O)c3c(c(O)c1C2=O)C[C@@](O)(C(=O)CO)C[C@@H]3O[C@H]1C[C@H](N)[C@H](O)[C@H](C)O1 [Doxorubicin, reference compound]
more toxic to non-tumor MCF10A than to breast cancer MDA-MB-231 cells ([3]; human, 48 h): 3-10 fold

Structure (SMILES): O=c1[nH]cc(F)c(=O)[nH]1 [Compound 5FU, 5-FluororoUricil, reference compound]
IC50 [4, 9]: 5.7 µM
more toxic to non-tumor MCF10A than to breast cancer MDA-MB-231 cells [3]: 3-10 fold
IC50 [5]: 1.8 µM

Structure (SMILES): N#CC(=C(/N)Sc1ccccc1N)/C(C#N)=C(\N)Sc1ccccc1N [Compound U0126]
tumor cell growth [1]: less sensitive
phosphorylation of ERK1/2 [6]: inhibits; also recorded: effectively blocked

Structure (SMILES): COC(=O)/C=C\C=C(\C(=O)OC)c1ccc(Cl)c(Cl)c1 [HDAB001]
IC50 (PC3): 2.3 µM
tumor cell growth [1]: markedly inhibited
repression of tumor cell growth together with TNFα [1]: cooperated with TNFα
phosphorylation of ERK1/2 [6]: did not affect
IC50 (RWPE-2): 2.4 µM
IC50 (LNCaP-C4-2): 0.5 µM
phosphorylation of ERK in the presence of EGF-mediated signaling (phosphorylation of ERK): did not affect
IC50 (ER/HER2-positive lines): 1 to 1.5 µM
TGF-beta reporter activity (SBE-Luc): did not affect
IC50 (RWPE-1): 40.1 µM
IC50 ([4]; MDA-MB-231 cells, 48 hours incubation, methylene blue staining): 4.62 µM
IC50 [4, 9]: 3.7 µM
IC50 (ER-positive cell lines): 0.3 to 0.75 µM
IC50 [7]: > 100 µM
IC50 in non-tumor MCF10A and MCF12A cells relative to tumor cells ([3]; non-tumor vs tumor cells): ~20 fold
selectivity for tumor cells compared to non-tumor cells ([3]; tumor vs non-tumor cells): at least twenty-fold
IC50 [5]: 48 µM
phosphorylation of Smad2 (phosphorylation of Smad2): did not affect
IC50 [8]: 0.53 µM
IC50 (LNCaP): 2.1 µM

Structure (SMILES): COC(=O)/C=C\C=C(\C(=O)OC)c1ccc(Br)c(Br)c1 [HDAB022, (2E,4Z)-dimethyl 2-(3,4-dibromophenyl)hexa-2,4-dienedioate]
IC50 ([4]; Homo sapiens, MDA-MB-231 cells, 48 hours incubation, methylene blue staining): 2.16 µM

Structure (SMILES): COc1cc2ncnc(Nc3cccc(Cl)c3)c2cc1OC [AG1478]
tumor cell growth [1]: resistant
phosphorylation of ERK in the presence of EGF-mediated signaling (phosphorylation of ERK): blocked
